Test results from patent US9073967B2, “High salt-resistance antibacterial peptide and method for producing the same” (NATIONAL TSING HUA UNIVERSITY, priority 2011, dated 2015).
Where a SMILES comes first, the peptide text is derived from it.

Key:
[1] = tested on: S. aureus ATCC 25923; assay: Antibacterial ability in different MgCl2 concentration; assay type: cell-based
[2] = tested on: S. aureus ATCC 29213; assay: Antibacterial ability in different salt (NaCl) concentration, LYM medium
Protocol: (§4) All bacteria strains of above microbes were cultured in LYM medium. […] The NaCl concentrations in LYM were divided into four groups of 50 mM, 100 mM, 200 mM, 300 mM and the microbes were cultured in the four group of LYM and diluted to a 10^4 CFU/ml bacterial solution. Then added 100 μl of the bacterial solution into 96-well culture dish and added different concentration of antibacterial peptides P113, Phe-P113, Nal-P113 or Bip-P113 to evaluate the antibacterial ability in 50 mM, 100 mM, 200 mM, 300 mM concentration of NaCl. (Note: In addition to NaCl, the LYM medium also contains 5.4 mM KCl, 5.6 mM Na2HPO4, 0.5 mM MgSO4, and 1.0 mM sodium citrate. Besides, 0.4 mg of ZnCl2, 2.0 mg of FeCl3.6H2O, 0.1 mg of CuSO4.5H2O, 0.1 mg of MnSO4.H2O, 0.1 mg of Na2B4O7.10H2O, 700 mg of amino acid mixtures without tryptophan (Clontech), and 20 mg of L-Tryptophan were added per liter of medium. Then added moderate amount of glucose, amino acid, and vitamins mixture from the RPM1-1640 Select-Amine Kit)

[3] = tested on: P. arugenosa ATCC 9027; assay: Antibacterial ability in different MgCl2 concentration; assay type: cell-based
[4] = tested on: E. coli ATCC 25922; assay: Antibacterial ability in different salt (NaCl) concentration, LYM medium
Protocol: as §4

[5] = tested on: E. coli ATCC 25922; assay: Antibacterial ability in different MgCl2 concentration; assay type: cell-based
[6] = tested on: P. arugenosa ATCC 27853; assay: Antibacterial ability in different salt (NaCl) concentration, LYM medium
Protocol: as §4

[7] = tested on: P. arugenosa ATCC 9027; assay: as above
Protocol: as §4

[8] = tested on: S. aureus ATCC 29213; assay: Antibacterial ability in different MgCl2 concentration; assay type: cell-based
[9] = tested on: P. arugenosa ATCC 27853; assay: as above; assay type: cell-based
[10] = tested on: S. aureus ATCC 19636; assay: Antibacterial ability in different salt (NaCl) concentration, LYM medium
Protocol: as §4

[11] = tested on: Pseudomonas aeruginosa strains ATTC 9027; assay: Antibacterial activity assay, NCCLS microdilution MIC in MHB; assay type: cell-based
Source text: (§1) For testing the antibacterial ability of Phe-P113, Nal-P113 and Bip-P113 in different salt concentration, we use Antibacterial activity assay to perform the test. Three bacteria strains are used: Eschericha coli strains (ATCC 25922), Staphylococcus aureus strains (ATCC 25923, 29213 and 19636, methicillin-resistant) and Pseudomonas aeruginosa strains (ATCC 27853 and 9027, ampicillin-resistant).
(§2) The microdilution method of National Committee for Clinical Laboratory Standards (NCCLS) is used to evaluate ‘The minimal inhibition concentration (MIC)’. The minimum concentration that can inhibit 90% or more microbes is the ‘minimal inhibition concentration’.
(§3) In the microdilution method, the 1 μl peptide solution (The concentration is between the range of 5000 μg/ml to 78.1 μg/ml) and the 99 μl inoculums (5×10^5 CFU/ml) is mixed incubated in 96-well culture dish coated with polyethylene under 37° C. for 16 hr. Then evaluated the turbidity in O.D.600 by ELISA plate reader (Thermo Max, Molecular Devices, Sunnyvale, Calif.). Take the Muller-Hinton Broth (MHB) and inoculums suspension with adding peptides as negative and positive control group relatively. The result of MIC is the minimum concentration of peptides that can inhibit the bacteria growth (equal to or more than 90%).

[12] = tested on: Eschericha coli strains ATCC 25922; assay: as above; assay type: cell-based
Source text: as §1, §2, §3

[13] = tested on: Staphylococcus aureus strains ATCC 29213; assay: as above; assay type: cell-based
Source text: as §1, §2, §3

[14] = tested on: Pseudomonas aeruginosa strains ATCC 27853; assay: as above; assay type: cell-based
Source text: as §1, §2, §3

[15] = tested on: Staphylococcus aureus strains ATCC 25923; assay: as above; assay type: cell-based
Source text: as §1, §2, §3

[16] = tested on: Staphylococcus aureus strains ATCC 19636; assay: as above; assay type: cell-based
Source text: as §1, §2, §3

[17] = tested on: S. aureus ATCC 19636; assay: Antibacterial ability in different MgCl2 concentration; assay type: cell-based
[18] = tested on: S. aureus ATCC 25923; assay: Antibacterial ability in different salt (NaCl) concentration, LYM medium
Protocol: as §4

C[C@H](N)C(=O)N[C@@H](CCCCN)C(=O)N[C@@H](CCCNC(=N)N)C(=O)N[C@@H](Cc1c[nH]cn1)C(=O)N[C@@H](Cc1c[nH]cn1)C(=O)NCC(=O)N[C@@H](Cc1ccc(O)cc1)C(=O)N[C@@H](CCCCN)C(=O)N[C@@H](CCCNC(=N)N)C(=O)N[C@@H](CCCCN)C(=O)N[C@@H](Cc1ccccc1)C(=O)N[C@@H](Cc1c[nH]cn1)C(N)=O [P113, AKRHHGYKRKFH-NH2 (SEQ ID NO: 1)] (H-AKRHHGYKRKFH-NH2; N-terminus assumed)
25 µg/mL: antibacterial ability (MIC) ([5]; MgCl2 1.5 mM) | antibacterial ability (MIC) ([5]; MgCl2 2.5 mM) | antibacterial ability (MIC) ([8]; MgCl2 1.5 mM) | antibacterial ability (MIC) ([8]; MgCl2 2.5 mM) | antibacterial ability (MIC) ([9]; Control group)
50: antibacterial ability (MIC) ([2]; NaCl 50 mM) | antibacterial ability (MIC) ([2]; NaCl 100 mM) | antibacterial ability (MIC) ([4]; NaCl 50 mM) | antibacterial ability (MIC) ([4]; NaCl 100 mM) | antibacterial ability (MIC) ([6]; NaCl 50 mM) | antibacterial ability (MIC) ([6]; NaCl 100 mM) | antibacterial ability (MIC) ([7]; NaCl 50 mM) | antibacterial ability (MIC) ([7]; NaCl 100 mM) | antibacterial ability (MIC) ([10]; NaCl 50 mM) | antibacterial ability (MIC) ([10]; NaCl 100 mM) | antibacterial ability (MIC) ([18]; NaCl 50 mM) | antibacterial ability (MIC) ([18]; NaCl 100 mM)
12.5 µg/mL: antibacterial ability (MIC) ([1]; Control group) | antibacterial ability (MIC) ([3]; Control group) | antibacterial ability (MIC) ([5]; Control group) | antibacterial ability (MIC) ([5]; MgCl2 0.5 mM) | antibacterial ability (MIC) ([8]; Control group) | antibacterial ability (MIC) ([8]; MgCl2 0.5 mM)
50 µg/mL: antibacterial ability (MIC) ([1]; MgCl2 0.5 mM) | antibacterial ability (MIC) ([1]; MgCl2 1.5 mM) | antibacterial ability (MIC) ([1]; MgCl2 2.5 mM) | antibacterial ability (MIC) ([9]; MgCl2 0.5 mM) | antibacterial ability (MIC) ([9]; MgCl2 1.5 mM) | antibacterial ability (MIC) ([9]; MgCl2 2.5 mM) | antibacterial ability (MIC) ([17]; Control group)
> 50 µg/mL: antibacterial ability (MIC) ([3]; MgCl2 0.5 mM) | antibacterial ability (MIC) ([3]; MgCl2 1.5 mM) | antibacterial ability (MIC) ([3]; MgCl2 2.5 mM) | antibacterial ability (MIC) ([17]; MgCl2 0.5 mM) | antibacterial ability (MIC) ([17]; MgCl2 1.5 mM) | antibacterial ability (MIC) ([17]; MgCl2 2.5 mM)
>50: antibacterial ability (MIC) ([2]; NaCl 200 mM) | antibacterial ability (MIC) ([2]; NaCl 300 mM) | antibacterial ability (MIC) ([4]; NaCl 200 mM) | antibacterial ability (MIC) ([4]; NaCl 300 mM) | antibacterial ability (MIC) ([6]; NaCl 200 mM) | antibacterial ability (MIC) ([6]; NaCl 300 mM) | antibacterial ability (MIC) ([7]; NaCl 200 mM) | antibacterial ability (MIC) ([7]; NaCl 300 mM) | antibacterial ability (MIC) ([10]; NaCl 200 mM) | antibacterial ability (MIC) ([10]; NaCl 300 mM) | minimal inhibition concentration (MIC) [11] | minimal inhibition concentration (MIC) [12] | minimal inhibition concentration (MIC) [13] | minimal inhibition concentration (MIC) [14] | minimal inhibition concentration (MIC) [15] | minimal inhibition concentration (MIC) [16] | antibacterial ability (MIC) ([18]; NaCl 200 mM) | antibacterial ability (MIC) ([18]; NaCl 300 mM)
